How the values were obtained:
[1] = system: release of TNF α from THP-1 cells; assay: Inhibitory activity of TNF α release from THP-1 cells (LPS, ELISA); assay type: cell-based; conditions: 3 hr, 37° C., TNF α by ELISA
Procedure: The inhibitory effect of each compound (compounds of Examples 1, 2, 3, 6, 35, 39 and 44) on the release of TNF α from THP-1 cells which are monocyte cultured cells [see Nature 370, 218-220 (1994)] was investigated.
The THP-1 cells were suspended to a concentration of 1×10 ^6 cells/ml in RPMI1640 medium supplemented with 10% fetal calf serum (FCS) and dispensed by 100 μl. A 2 μg/ml LPS was prepared with RPMI1640 medium supplemented with 10% FCS. Each compound (dissolved in dimethyl sulfoxide) was diluted 500-fold with the LPS solution.
The diluted solutions of these compounds were added to the dispensed cell suspensions by 100 μl and allowed for 3 hr to react under the conditions of 37° C., 5% CO2. After the completion of the reaction, the reaction mixture was centrifuged and the culture supernatant was collected. The TNF α amount was quantitatively measured by ELISA (enzyme-linked immunosorbent assay). The TNF α release inhibitory effect by each compound was calculated from the proportion of released TNF α amount of the compound addition group relative to that of the compound non-addition group.

[2] = system: release of TNF α from LPS treated human whole blood; assay: Inhibitory activity of TNF α release from LPS treated human whole blood (ELISA); assay type: cell-based; conditions: LPS treated human whole blood diluted 4-fold, 24 hr, 37° C., TNF α by ELISA
Procedure: The inhibitory effect of each compound (compounds of Examples 2, 6, 7, 10, 11, 37, 147, 231 and 245) on the release of TNF α from LPS treated human whole blood [see: Lymphokine Res 8, 141-146 (1989)] was investigated.
Human whole blood was diluted 4-fold with RPMI1640 medium supplemented with 10% FCS. The diluted blood was dispensed to a 96 multi-well plate by 100 μl and equilibrated under the conditions of 37° C., 5% CO2. LPS (2 μg/ml) was prepared with RPMI1640 medium supplemented with 10% FCS and a culture broth prepared by dissolving each compound (dissolved in dimethyl sulfoxide) in the LPS solution was added by 100 μl/well (final concentrated of dimethyl sulfoxide 0.1%), which was followed by incubation for 24 hr (37° C., 5% CO2). After the incubation, the reaction mixture was centrifuged (1,500 rpm, 5 min). The culture supernatant (40 μl/well) was collected, and TNF α amount in the supernatant was quantitatively measured by ELISA. The TNF α release inhibitory effect by each compound was calculated from the proportion of release TNF α amount of the compound addition group relitive to that of the compound non-addition group.

[3] = Solubility in saline (0.9% aqueous sodium chloride solution) at 25° C.; assay type: physicochemical; conditions: for solubility: saline or isotonic
Procedure: The solubility of the Example compounds of the present invention in saline (0.9% aqueous sodium chloride solution) at 25° C. was measured.

For `CC(C)C[C@@H](C(=O)N[C@@H](Cc1ccccc1)C(=O)c1ccc(OCCN(C)C)cc1)C(CN1C(=O)c2ccccc2C1=O)C(=O)NO.Cl` (single isomer, unassigned) [Example 2, 3(R)-[1(S)-[4-(2-Dimethylaminoethoxy)benzoyl]-2-phenyl]ethylcarbamoyl-5-methyl-2(R or S)-phthalimidomethylhexanohydroxamic Acid Hydrochloride], the IC50 ([1]; Homo sapiens) was 0.2 µM, the IC50 [2] was 0.65 µM and the solubility [3] was over 5 mg/mL.
In the case of `CC(C)C[C@@H](C(=O)N[C@@H](Cc1ccc(OS(=O)(=O)[O-])cc1)C(=O)c1ccco1)C(CN1C(=O)c2ccccc2C1=O)C(=O)NO.[Na+]` (single isomer, unassigned) [Example 6, Sodium Salt of 3(R)-[1(S)-(2-furyl)carbonyl-2-[4-(hydroxysulfonyloxy)phenyl]]ethylcarbamoyl-5-methyl-2(R or S)-phthalimidomethylhexanohydroxamic Acid], the IC50 ([1]; Homo sapiens) is reported as 0.66 µM, the IC50 [2] is reported as 1.39 µM and the solubility [3] is reported as over 20 mg/mL.
In the case of `CC(C)C[C@@H](C(=O)N[C@H](C(=O)c1ccc(OCCN(C)C)cc1)C(C)(C)C)C(CN1C(=O)c2ccccc2C1=O)C(=O)NO.Cl` (single isomer, unassigned) [Example 39, 3(R)-[2,2-Dimethyl-1(S)-[4-(2-dimethylaminoethoxy)benzoyl]]propylcarbamoyl-5-methyl-2(R or S)-phthalimidomethylhexanohydroxamic Acid Hydrochloride], the IC50 [1] is reported as 0.3 µM and the “Solubility, saline” value [3] is reported as over 20 mg/mL.

From patent publication US6610729B1, “Hydroxamic acid derivatives and medicinal utilization thereof” (Mitsubishi Pharma Corporation, priority 1998, dated 2003)
